From ChEMBL document CHEMBL5108015, “4,6-Disubstituted-1H-Indazole-4-Amine derivatives with immune-chemotherapy effect and in vivo antitumor activity” (Eur J Med Chem, 2022)
pIC50, pKi: −log10 of the molar value.

What was measured:
B16 = experiment: Cytotoxicity against mouse B16 cells assessed as inhibition of cell growth incubated for 24 hrs by MTT assay; type: functional, cell-based; settings: B16, 24 h
[1] = Cytotoxicity against […] cells assessed as inhibition of cell growth incubated for 24 hrs by MTT assay; type: functional, cell-based; settings: Mus musculus, Hepa1-6, 24 h
[2] = target: T1, Indoleamine 2,3-dioxygenase 1 (Homo sapiens, UniProt P14902); experiment: (§1) Inhibition of N-terminal hexa-histidine tagged human IDO1 (12 to 403 residues) expressed in Escherichia coli Transetta (DE3) using L-tryptophan as substrate preincubated with enzyme for 10 mins followed by substrate addition and measured after 30 to 60 mins by microplate reader analysis
Target sequence in this assay (P14902 whole entry, the tested form may be a part): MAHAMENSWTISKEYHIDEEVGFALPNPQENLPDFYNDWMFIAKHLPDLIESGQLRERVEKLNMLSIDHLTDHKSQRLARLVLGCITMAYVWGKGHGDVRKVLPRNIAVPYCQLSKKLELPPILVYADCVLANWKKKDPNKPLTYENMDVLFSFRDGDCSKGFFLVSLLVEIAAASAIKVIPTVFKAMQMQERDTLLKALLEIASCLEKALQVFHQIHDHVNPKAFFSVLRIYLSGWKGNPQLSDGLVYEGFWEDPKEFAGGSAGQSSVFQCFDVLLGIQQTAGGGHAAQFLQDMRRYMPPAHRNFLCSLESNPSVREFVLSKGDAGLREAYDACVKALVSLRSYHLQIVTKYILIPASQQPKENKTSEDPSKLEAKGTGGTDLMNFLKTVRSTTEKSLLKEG

[3] = target: T1, Indoleamine 2,3-dioxygenase 1; experiment: as §1, with “as substrate at 100 uM preincubated with” for “as substrate preincubated with”, “reader analysis relative to control” for “reader analysis”; settings: time 40-70 min
Target sequence in this assay (P14902 whole entry, looked up, the tested form may be a part): as the sequence (P14902 whole entry, the tested form may be a part) above

[4] = target: T2, Tryptophan 2,3-dioxygenase (Homo sapiens, UniProt P48775); experiment: (§2) Inhibition of N-terminal hexa-histidine tagged human TDO (19 to 388 residues) expressed in Escherichia coli Transetta (DE3) using L-tryptophan as substrate preincubated with enzyme for 10 mins followed by substrate addition and measured after 30 to 60 mins by microplate reader analysis
Target sequence in this assay (P48775 whole entry, the tested form may be a part): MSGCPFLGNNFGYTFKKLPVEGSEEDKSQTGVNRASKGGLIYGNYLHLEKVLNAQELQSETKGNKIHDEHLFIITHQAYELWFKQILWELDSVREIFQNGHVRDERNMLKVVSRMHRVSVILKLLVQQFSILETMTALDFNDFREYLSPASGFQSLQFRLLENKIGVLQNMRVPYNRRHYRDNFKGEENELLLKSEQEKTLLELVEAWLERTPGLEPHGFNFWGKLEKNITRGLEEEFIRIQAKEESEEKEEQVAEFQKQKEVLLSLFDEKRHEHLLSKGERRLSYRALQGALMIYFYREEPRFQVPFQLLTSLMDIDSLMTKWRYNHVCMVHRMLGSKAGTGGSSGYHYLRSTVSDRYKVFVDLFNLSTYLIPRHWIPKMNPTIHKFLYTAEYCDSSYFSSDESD

H22 = experiment: Cytotoxicity against mouse H22 cells assessed as inhibition of cell growth incubated for 24 hrs by MTT assay; type: functional, cell-based; settings: H22, 24 h
[5] = target: T2, Tryptophan 2,3-dioxygenase; experiment: as §2, with “as substrate at 100 uM preincubated with” for “as substrate preincubated with”, “reader analysis relative to control” for “reader analysis”; settings: time 40-70 min
Target sequence in this assay (P48775 whole entry, looked up, the tested form may be a part): as the sequence (P48775 whole entry, the tested form may be a part) above

[6] = target: T2, Tryptophan 2,3-dioxygenase; experiment: as §2, with “as substrate at 10 uM preincubated with” for “as substrate preincubated with”, “reader analysis relative to control” for “reader analysis”; settings: time 40-70 min
Target sequence in this assay (P48775 whole entry, looked up, the tested form may be a part): as the sequence (P48775 whole entry, the tested form may be a part) above

Jurkat = experiment: Cytotoxicity against human Jurkat cells assessed as inhibition of cell growth incubated for 24 hrs by MTT assay; type: functional, cell-based
HepG2 = experiment: Cytotoxicity against human HepG2 cells assessed as inhibition of cell growth incubated for 24 hrs by MTT assay; type: functional, cell-based; settings: HepG2, 24 h
MOLM-13 = experiment: Cytotoxicity against human MOLM-13 cells assessed as inhibition of cell growth incubated for 24 hrs by MTT assay; type: functional, cell-based; settings: MOLM-13, 24 h
[7] = target: T1, Indoleamine 2,3-dioxygenase 1; experiment: as §1, with “as substrate at 10 uM preincubated with” for “as substrate preincubated with”, “reader analysis relative to control” for “reader analysis”; settings: time 40-70 min
Target sequence in this assay (P14902 whole entry, looked up, the tested form may be a part): as the sequence (P14902 whole entry, the tested form may be a part) above

HEK293 = experiment: Cytotoxicity against HEK293 cells assessed as inhibition of cell growth at <10 uM incubated for 24 hrs by MTT assay; type: toxicity, cell-based; settings: human, hek293, 24 h
[8] = target: T2, Tryptophan 2,3-dioxygenase; experiment: Inhibition of human TDO
Target sequence in this assay (P48775 whole entry, the tested form may be a part): as the sequence (P48775 whole entry, the tested form may be a part) above

[9] = target: T1, Indoleamine 2,3-dioxygenase 1; experiment: Inhibition of human IDO1
Target sequence in this assay (P14902 whole entry, the tested form may be a part): as the sequence (P14902 whole entry, the tested form may be a part) above

| pIC50 [2] | inhibition [3] | pIC50 [4] | inhibition [5] | inhibition [6] | inhibition [7] | pKi [8] | pKi [9] | Structure (SMILES) | pIC50 (B16) | pIC50 [1] | pIC50 (H22) | pIC50 (Jurkat) | pIC50 (HepG2) | pIC50 (MOLM-13) | Activity (HEK293) |
| --- | --- | --- | --- | --- | --- | --- | --- | --- | --- | --- | --- | --- | --- | --- | --- |
| 5.16 | 87% | 5.65 | 93% | 87% | 63% |  |  | O=[N+]([O-])c1ccc(CNc2cc(Br)cc3[nH]ncc23)cc1 | < 4.70 | < 4.70 | < 4.70 | < 4.70 | < 4.70 | < 4.70 |  |
| 4.73 | 81% | 5.09 | 88% | 64% | 32% |  |  | FC(F)(F)c1cc(NC[C@@H]2CCCCN2)c2cn[nH]c2c1 | < 4.70 | < 4.70 | 4.66 | < 4.70 | 4.70 | < 4.70 |  |
| 4.42 | 65% | 5.50 | 88% | 84% | 35% |  |  | O=[N+]([O-])c1ccc(Cl)cc1CNc1cc(C(F)(F)F)cc2[nH]ncc12 | 4.94 | 6.03 | 6.31 | 5.96 | 5.89 | 5.98 | Non-Toxic |
| 4.74 | 77% | 5.77 | 93% | 90% | 50% |  |  | O=[N+]([O-])c1cc(Cl)ccc1CNc1cc(C(F)(F)F)cc2[nH]ncc12 | < 4.70 | < 4.70 | 4.99 | 5.09 | 5.24 | 5.38 |  |
| < 4.00 | 64% | 5.84 | 88% | 85% | 31% |  |  | O=[N+]([O-])c1cc(Br)c(F)cc1CNc1cc(C(F)(F)F)cc2[nH]ncc12 | 4.86 | 4.82 | 5.73 | 5.55 | 5.71 | 5.37 |  |
|  |  |  |  |  |  | < 6.00 | < 6.00 | CC(C(=O)c1ccc(O)cc1)C1(O)C(=O)Nc2c(Cl)cc(Cl)cc21 (stereo not drawn) |  |  |  |  |  |  |  |
